Target: T1, human progesterone receptor B (PR-B) (Homo sapiens, UniProt P06401)
T1 construct: expressed in transfected cells; host or cells: SK-N-MC human neuroblastoma cells, stably transfected with pRChPR-B-neo and pMMTV-LUC
T1 sequence (P06401 1-933): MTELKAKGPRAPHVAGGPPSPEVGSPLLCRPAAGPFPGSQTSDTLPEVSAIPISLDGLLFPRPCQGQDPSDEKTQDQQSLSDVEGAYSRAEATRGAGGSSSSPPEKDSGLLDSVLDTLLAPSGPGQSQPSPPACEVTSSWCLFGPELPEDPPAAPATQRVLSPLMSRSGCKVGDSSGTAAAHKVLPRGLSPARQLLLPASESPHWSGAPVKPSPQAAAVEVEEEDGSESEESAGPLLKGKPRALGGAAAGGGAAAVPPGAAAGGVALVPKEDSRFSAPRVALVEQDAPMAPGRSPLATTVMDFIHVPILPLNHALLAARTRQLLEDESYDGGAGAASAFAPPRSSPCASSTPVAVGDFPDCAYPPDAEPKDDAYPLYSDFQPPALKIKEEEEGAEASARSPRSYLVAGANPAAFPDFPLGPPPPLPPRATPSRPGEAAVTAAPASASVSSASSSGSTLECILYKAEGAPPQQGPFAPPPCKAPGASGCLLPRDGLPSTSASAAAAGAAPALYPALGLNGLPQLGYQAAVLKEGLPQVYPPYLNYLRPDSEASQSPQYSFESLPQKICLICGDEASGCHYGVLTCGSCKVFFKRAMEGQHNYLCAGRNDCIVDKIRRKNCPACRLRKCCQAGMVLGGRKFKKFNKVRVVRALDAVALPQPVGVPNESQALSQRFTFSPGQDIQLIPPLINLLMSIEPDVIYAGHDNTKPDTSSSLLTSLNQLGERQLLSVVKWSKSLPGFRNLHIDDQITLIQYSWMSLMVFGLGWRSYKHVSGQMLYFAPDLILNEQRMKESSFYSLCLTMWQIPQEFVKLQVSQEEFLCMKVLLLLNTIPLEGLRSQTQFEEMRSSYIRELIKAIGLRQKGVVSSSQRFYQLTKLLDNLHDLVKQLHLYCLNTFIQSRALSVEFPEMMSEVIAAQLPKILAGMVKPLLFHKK
Assay: Progesterone receptor-antagonistic action in stable transfectants of SK-N-MC cells with human PR-B and MTV-LUC reporter
Type: cell-based
Settings: SK-N-MC, 24 h, read-out: Progesterone receptor B (PR-B) Efficacy
Protocol: Progesterone Receptor-Antagonistic Action in Stable Transfectants of Human Neuroblastoma Cells (SK-N-MC Cells) with the Human Progesterone A or Progesterone B Receptor and an MTV-LUC Reporter Construct
SK-N-MC cells (human neuroblastoma cells), which have been stably transfected with plasmids, which express the human progesterone receptor B (pRChPR-B-neo) or the human progesterone receptor A (pRChPR-A-neo) and a reporter construct (pMMTV-LUC), were incubated for 24 hours either in the absence (negative control) or in the presence of increasing amounts of the respective test compound (0.01 nmol/l, 0.1 nmol/l, 1 nmol/l, 10 nmol/l, 100 nmol/l and 1 μmol/l), in order to determine the agonistic efficacy. As positive control of reporter gene induction, the cells were treated with the synthetic gestagen promegestone (0.01 nmol/l, 0.1 nmol/l, 1 nmol/l, 10 nmol/l, 100 nmol/l and 1 μmol/l). For determination of the antagonistic activity, the cells were treated with 0.1 nmol/l promegestone and additionally with increasing amounts of the respective test compound (0.01 nmol/l, 0.1 nmol/l, 1 nmol/l, 10 nmol/l, 100 nmol/l and 1 μmol/l). The activity of the LUC reporter gene (LUC=luciferase) was determined in the cell lysates and was measured as RLU (relative light units). All measured values are given as percentage efficacy and as EC50 or IC50 concentrations.
11β-(4-Acetylphenyl)-20,20,21,21,21-pentafluoro-17-hydroxy-19-nor-17α-pregna-4,9-dien-3-one and 20,20,21,21,21-pentafluoro-17-hydroxy-11β-[4-(hydroxyacetyl)phenyl]-19-nor-17α-pregna-4,9-dien-3-one, very potent and therefore preferred examples from WO98/34947 and WO2008/058767, were tested as comparative compounds along with the test compound.

C[C@]12C[C@H](c3ccc(S(C)(=O)=O)cc3)C3=C4CCC(=O)C=C4CC[C@H]3[C@@H]1CC[C@@]2(O)C(F)(F)C(F)(F)F [Example 4, (11β,17β)-17-Hydroxy-11-[4-(methylsulphonyl)phenyl]-17-(pentafluoroethyl)estra-4,9-dien-3-one]
Emax: 100%

Source: patent US8278469B2, “17-hydroxy-17-pentafluoroethyl-estra-4,9(10)-dien-11-aryl derivatives, method of production thereof and use thereof for the treatment of diseases” (Bayer Pharma Aktiengesellschaft, priority 2009, dated 2012)
